Reference: ChEMBL document CHEMBL1201862, “PubChem BioAssay data set” (2004)
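Grown in 96-well plates, cells were treated for 48 hours with each compound at five concentrations. Insufficient inhibition: endpoint recorded as highest concentration tested. Abbreviation: GI50, concentration required for 50% inhibition of growth.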 Calls of active or inactive are those of the source. No stated cut-off is given here; in the data, active = GI50 up to about 1.1 µM and inactive = higher.

How the values were obtained:
Assay in all cases: inhibition of tumour cell growth, NCI panel, 48 h
[1] = tested on: 786-0
[2] = tested on: A498
[3] = tested on: A549
[4] = tested on: ACHN
[5] = tested on: CAKI-1
[6] = tested on: CCRF-CEM
[7] = tested on: COLO 205
[8] = tested on: DU-145
[9] = tested on: EKVX
[10] = tested on: HCC 2998
[11] = tested on: HCT-116
[12] = tested on: HCT-15
[13] = tested on: HL-60
[14] = tested on: HOP-62
[15] = tested on: HOP-92
[16] = tested on: HT-29
[17] = tested on: Hs-578T
[18] = tested on: IGROV-1
[19] = tested on: K562
[20] = tested on: KM12
[21] = tested on: LOX IMVI
[22] = tested on: M14
[23] = tested on: MCF7
[24] = tested on: MDA-MB-231
[25] = tested on: MDA-MB-435
[26] = tested on: MDA-N
[27] = tested on: MOLT-4
[28] = tested on: Malme-3M
[29] = tested on: NCI-H226
[30] = tested on: NCI-H23
[31] = tested on: NCI-H460
[32] = tested on: NCI-H522
[33] = tested on: NCI/ADR-RES
[34] = tested on: OVCAR-3
[35] = tested on: OVCAR-4
[36] = tested on: OVCAR-5
[37] = tested on: OVCAR-8
[38] = tested on: PC-3
[39] = tested on: RPMI-8226
[40] = tested on: RXF 393
[41] = tested on: SF-268
[42] = tested on: SF-295
[43] = tested on: SF-539
[44] = tested on: SK-MEL-28
[45] = tested on: SK-MEL-2
[46] = tested on: SK-MEL-5
[47] = tested on: SK-OV-3
[48] = tested on: SN12C
[49] = tested on: SNB-19
[50] = tested on: SNB-75
[51] = tested on: SR
[52] = tested on: SW-620
[53] = tested on: T47D
[54] = tested on: TK-10
[55] = tested on: U-251
[56] = tested on: UACC-257
[57] = tested on: UACC-62
[58] = tested on: UO-31
[59] = tested on: BT-549

CC(C)CC1C(=O)NCCC(NC(=O)C(N)Cc2ccc(O)cc2)C(=O)NC(Cc2ccccc2)C(=O)NC(Cc2ccccc2)NC1=O (stereo unspecified)
GI50 [1]: > 100 µM (inactive) | GI50 [2]: > 100 µM (inactive) | GI50 [3]: > 100 µM (inactive) | GI50 [4]: > 100 µM (inactive) | GI50 [5]: > 100 µM (inactive) | GI50 [6]: > 100 µM (inactive) | GI50 [7]: > 100 µM (inactive) | GI50 [8]: > 100 µM (inactive) | GI50 [9]: > 100 µM (inactive) | GI50 [10]: > 100 µM (inactive) | GI50 [11]: > 100 µM (inactive) | GI50 [12]: > 100 µM | GI50 [13]: > 100 µM (inactive) | GI50 [14]: > 100 µM (inactive) | GI50 [15]: 72.9 µM (inactive) | GI50 [16]: > 100 µM (inactive) | GI50 [17]: 0.885 µM (active) | GI50 [18]: > 100 µM (inactive) | GI50 [19]: > 100 µM (inactive) | GI50 [20]: > 100 µM (inactive) | GI50 [21]: > 100 µM (inactive) | GI50 [22]: > 100 µM (inactive) | GI50 [23]: > 100 µM (inactive) | GI50 [24]: > 100 µM (inactive) | GI50 [25]: > 100 µM (inactive) | GI50 [26]: > 100 µM (inactive) | GI50 [27]: > 100 µM (inactive) | GI50 [28]: > 100 µM (inactive) | GI50 [29]: > 100 µM (inactive) | GI50 [30]: > 100 µM (inactive) | GI50 [31]: > 100 µM (inactive) | GI50 [32]: > 100 µM (inactive) | GI50 [33]: > 100 µM (inactive) | GI50 [34]: > 100 µM (inactive) | GI50 [35]: > 100 µM (inactive) | GI50 [36]: > 100 µM (inactive) | GI50 [37]: > 100 µM (inactive) | GI50 [38]: > 100 µM (inactive) | GI50 [39]: 78.2 µM (inactive) | GI50 [40]: > 100 µM (inactive) | GI50 [41]: > 100 µM (inactive) | GI50 [42]: > 100 µM (inactive) | GI50 [43]: > 100 µM (inactive) | GI50 [44]: > 100 µM (inactive) | GI50 [45]: > 100 µM (inactive) | GI50 [46]: 17.9 µM (inactive) | GI50 [47]: > 100 µM (inactive) | GI50 [48]: > 100 µM (inactive) | GI50 [49]: > 100 µM (inactive) | GI50 [50]: > 100 µM (inactive) | GI50 [51]: > 100 µM (inactive) | GI50 [52]: > 100 µM (inactive) | GI50 [53]: > 100 µM (inactive) | GI50 [54]: > 100 µM (inactive) | GI50 [55]: > 100 µM (inactive) | GI50 [56]: > 100 µM (inactive) | GI50 [57]: > 100 µM (inactive) | GI50 [58]: > 100 µM (inactive)

CC(C)(C)[Si](C)(C)OCC1OC(n2cc(I)c(=O)[nH]c2=O)C(O[Si](C)(C)C(C)(C)C)C1O[Si](C)(C)C(C)(C)C (stereo unspecified)
GI50 [3]: 11.4 µM (inactive) | GI50 [4]: 15.2 µM (inactive) | GI50 [59]: 24 µM (inactive) | GI50 [7]: 19.1 µM (inactive) | GI50 [9]: 22 µM (inactive) | GI50 [12]: 29.8 µM | GI50 [14]: 20.1 µM (inactive) | GI50 [15]: 22.1 µM (inactive) | GI50 [16]: 14.3 µM (inactive) | GI50 [17]: 18.6 µM (inactive) | GI50 [18]: 17.7 µM (inactive) | GI50 [21]: 12.5 µM (inactive) | GI50 [22]: 15.7 µM (inactive) | GI50 [23]: 12.9 µM (inactive) | GI50 [24]: 15.3 µM (inactive) | GI50 [27]: 10.7 µM (inactive) | GI50 [28]: 53.3 µM (inactive) | GI50 [29]: 25.6 µM (inactive) | GI50 [31]: 15.5 µM (inactive) | GI50 [32]: 9.68 µM (inactive) | GI50 [33]: > 100 µM (inactive) | GI50 [34]: 14.3 µM (inactive) | GI50 [35]: 55.8 µM (inactive) | GI50 [36]: 24.8 µM (inactive) | GI50 [37]: 12.7 µM (inactive) | GI50 [38]: 7.24 µM (inactive) | GI50 [41]: 21.1 µM (inactive) | GI50 [42]: 15.2 µM (inactive) | GI50 [45]: > 10 µM (inactive) | GI50 [46]: 16.6 µM (inactive) | GI50 [47]: 32.1 µM (inactive) | GI50 [48]: 26.9 µM (inactive) | GI50 [49]: 19.5 µM (inactive) | GI50 [50]: 16.1 µM (inactive) | GI50 [51]: 28.1 µM (inactive) | GI50 [52]: 14.6 µM (inactive) | GI50 [53]: 17.1 µM (inactive) | GI50 [56]: 10.5 µM (inactive) | GI50 [57]: 16.7 µM (inactive) | GI50 [58]: 23.8 µM (inactive)

Cn1c2nc3ccccc3c-2cc2ccccc21 [NEOCRYPTOLEPINE]
GI50 [1]: 3.84 µM (inactive) | GI50 [59]: 3.19 µM (inactive) | GI50 [6]: 3.15 µM (inactive) | GI50 [7]: 2.93 µM (inactive) | GI50 [8]: 6.82 µM (inactive) | GI50 [9]: 2.28 µM (inactive) | GI50 [10]: 2.48 µM (inactive) | GI50 [13]: 2.38 µM (inactive) | GI50 [16]: 2.51 µM (inactive) | GI50 [18]: 2.7 µM (inactive) | GI50 [19]: 3.41 µM (inactive) | GI50 [21]: 3.27 µM (inactive) | GI50 [23]: 2.74 µM (inactive) | GI50 [25]: 4.2 µM (inactive) | GI50 [31]: 2.38 µM (inactive) | GI50 [34]: 5.18 µM (inactive) | GI50 [38]: 3.3 µM (inactive) | GI50 [42]: 4.59 µM (inactive) | GI50 [43]: 3.05 µM (inactive) | GI50 [47]: 6.47 µM (inactive) | GI50 [51]: 2.2 µM (inactive) | GI50 [52]: 3.68 µM (inactive) | GI50 [53]: 4.81 µM (inactive)

O=S(=O)(O)Oc1cc2c(c(OS(=O)(=O)O)c1)C[C@H](OS(=O)(=O)O)[C@@H](c1ccc(OS(=O)(=O)O)c(OS(=O)(=O)O)c1)O2
GI50 [3]: > 100 µM (inactive) | GI50 [4]: > 100 µM (inactive) | GI50 [59]: > 100 µM (inactive) | GI50 [7]: > 100 µM (inactive) | GI50 [9]: > 100 µM (inactive) | GI50 [12]: > 100 µM | GI50 [14]: > 100 µM (inactive) | GI50 [15]: > 100 µM (inactive) | GI50 [16]: > 100 µM (inactive) | GI50 [17]: > 100 µM (inactive) | GI50 [18]: > 100 µM (inactive) | GI50 [21]: > 100 µM (inactive) | GI50 [22]: > 100 µM (inactive) | GI50 [23]: > 100 µM (inactive) | GI50 [24]: 85.7 µM (inactive) | GI50 [27]: > 100 µM (inactive) | GI50 [28]: > 100 µM (inactive) | GI50 [29]: > 100 µM (inactive) | GI50 [31]: > 100 µM (inactive) | GI50 [32]: > 100 µM (inactive) | GI50 [33]: > 100 µM (inactive) | GI50 [34]: > 100 µM (inactive) | GI50 [35]: > 100 µM (inactive) | GI50 [36]: > 100 µM (inactive) | GI50 [37]: > 100 µM (inactive) | GI50 [38]: > 100 µM (inactive) | GI50 [41]: > 100 µM (inactive) | GI50 [42]: > 100 µM (inactive) | GI50 [45]: > 100 µM (inactive) | GI50 [46]: > 100 µM (inactive) | GI50 [47]: > 100 µM (inactive) | GI50 [48]: > 100 µM (inactive) | GI50 [49]: > 100 µM (inactive) | GI50 [50]: 43.6 µM (inactive) | GI50 [51]: > 100 µM (inactive) | GI50 [52]: > 100 µM (inactive) | GI50 [53]: > 100 µM (inactive) | GI50 [56]: > 100 µM (inactive) | GI50 [57]: > 100 µM (inactive) | GI50 [58]: > 100 µM (inactive)
